According to patent US6759420B1, “Arylalkanoyl derivatives, processes for their preparation, their use and pharmaceutical compositions containing them” (Aventis Pharma Deutschland GmbH, priority 1999, dated 2004):
Structures can show the parent of a compound that is named as a salt.

Biological target: factor Xa (Homo sapiens, UniProt P00742)
Assay: Factor Xa assay (Test 1a), chromogenic
Format: biochemical
Design: purchased Enzyme Research Laboratories, Inc; South Bend, Ind
Settings: in vitro factor Xa assay Test 1a; human factor Xa 0.5 nM, substrate S-2765 140 μM, 25° C.; Ki from IC50 corrected for substrate competition
Text: The ability of a compound of formula (I) to inhibit factor Xa, thrombin, plasmin, elastase, and trypsin may be assessed by determining the concentration of compound of formula (I) that inhibits enzyme activity by 50% (IC50). Purified enzymes are used in chromogenic assays. To determine the inhibition constant, the IC50 value is corrected for competition with substrate using the formula:
Ki=IC50×(1/{1+((substrate concentration)/substrate Km)})
where Km is the Michaelis-Menten constant. Y. -C. Chen and W. H. Prusoff, Biochem. Pharmacol. 22: […] (1973), which is incorporated herein by reference.
TBS-PEG buffer (50 mM Tris-Cl, pH 7.8, 200 mM NaCl, 0.05% (w/v) PEG-8000, 0.02% (w/v) NaN3) is used for this assay. The IC50 is determined by combining in appropriate wells of a Costar half-area microtiter plate 25 μl human factor Xa (Enzyme Research Laboratories, Inc.; South Bend, Ind.) in TBS-PEG; 40 μl 10% (v/v) DMSO in TBS-PEG (uninhibited control) or various concentrations of the compound to be tested diluted in 10% (v/v) DMSO in TBS-PEG; and substrate S-2765 (N-benzyloxycarbonyl-D-Arg-Gly-L-Arg-p-nitroanilide; Kabi Pharmacia, Inc.; Franklin Ohio) in TBS-PEG.
The assays are performed by pre-incubating the compound of formula (I) plus enzyme for 10 min, then the assay is initiated by adding substrate to obtain a final volume of 100 μl. The initial velocity of chromogenic substrate hydrolysis is measured by the change in absorbance at 405 nm using a Bio-tek Instruments kinetic plate reader (Ceres UV900HDi) at 25° C. during the linear portion of the time course (usually 1.5 min after addition of substrate). The concentration of inhibitor that causes a 50% decrease in the rate of substrate hydrolysis is predicted by linear regression after plotting the relative rates of hydrolysis (compared to the uninhibited control) versus the log of the compound of formula (I) concentration. The enzyme concentration is 0.5 nM and substrate concentration is 140 μM.

Chain of factor Xa (P00742 235-488 limits assumed): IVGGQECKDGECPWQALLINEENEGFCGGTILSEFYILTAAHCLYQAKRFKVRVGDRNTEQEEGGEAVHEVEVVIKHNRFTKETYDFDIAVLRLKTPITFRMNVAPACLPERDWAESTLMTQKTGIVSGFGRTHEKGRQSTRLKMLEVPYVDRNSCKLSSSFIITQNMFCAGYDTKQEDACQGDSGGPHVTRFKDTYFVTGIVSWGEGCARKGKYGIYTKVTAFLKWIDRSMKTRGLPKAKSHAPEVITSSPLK
Chain of factor Xa (P00742 41-179 limits assumed): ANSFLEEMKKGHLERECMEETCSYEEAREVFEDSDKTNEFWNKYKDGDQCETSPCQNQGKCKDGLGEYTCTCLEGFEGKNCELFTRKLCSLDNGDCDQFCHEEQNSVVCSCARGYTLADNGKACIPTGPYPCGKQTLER

SMILES	Ki [nM]
CN(Cc1ccccc1)C(=O)[C@H](CCCNC(=N)N)NC(=O)C(NC(=O)C(Cc1ccc(C(=N)N)cc1)C1CCCCC1)C1CCCCC1 (single isomer, unassigned; less polar) [Example 183]	25
CCCCOC(=O)[C@H](CCCNC(=N)N)NC(=O)[C@@H](NC(=O)C(Cc1ccc(C(=N)N)cc1)C1CCCCC1)C1CCCCC1 (single isomer, unassigned; less polar) [Example 188]	22
CCCOC(=O)C(CCCNC(=N)N)NC(=O)C(NC(=O)C(Cc1ccc(C(=N)N)cc1)C1CCCCC1)C1CCCCC1 (single isomer, unassigned; less polar) [Example 189]	20
N=C(N)c1ccc(CC(C(=O)N[C@H](C(=O)NCC2CCN(C(=N)N)CC2)C2CCCCC2)c2ccc(Cl)cc2)cc1 (single isomer, unassigned; less polar) [Example 216]	19
N=C(N)c1ccc(CC(C(=O)N[C@H](C(=O)NCC2CCC(C(=N)N)CC2)C2CCCCC2)c2cccc(Br)c2)cc1 (single isomer, unassigned; less polar) [Example 219]	5
N=C(N)c1ccc(CC(C(=O)N[C@H](C(=O)NCC2CCN(C(=N)N)CC2)C2CCCCC2)c2ccccc2)cc1 (single isomer, unassigned; less polar) [Example 222]	43
CC(=N)N1CCC(CNC(=O)C(NC(=O)C(Cc2ccc(C(=N)N)cc2)c2cccc(Br)c2)C2CCCCC2)CC1 (single isomer, unassigned; less polar) [Example 223]	1
N=C(N)c1ccc(CC(C(=O)N[C@H](C(=O)NCC2CCN(C(=N)N)CC2)C2CCCCC2)c2ccccc2Cl)cc1 (single isomer, unassigned; less polar) [Example 230]	1
N=C(N)c1ccc(CC(C(=O)N[C@H](C(=O)NCC2CCN(C(=N)N)CC2)C2CCCCC2)c2ccc(C(F)(F)F)cc2)cc1 (single isomer, unassigned; less polar) [Example 232]	24
N=C(N)c1ccc(CC(C(=O)N[C@H](C(=O)NCC2CCN(C(=N)N)CC2)C2CCCCC2)c2ccccc2OC(F)(F)F)cc1 (single isomer, unassigned; less polar) [Example 233]	33
N=C(N)c1ccc(CC(C(=O)N[C@H](C(=O)NCC2CCN(C(=N)N)CC2)C2CCCCC2)c2ccccc2F)cc1 (single isomer, unassigned; less polar) [Example 235]	12
N=C(N)c1ccc(CC(C(=O)N[C@H](C(=O)NCC2CCN(C(=N)N)CC2)C2CCCCC2)c2ccccc2Br)cc1 (single isomer, unassigned; less polar) [Example 236]	5
N=C(N)c1ccc(CC(C(=O)N[C@H](C(=O)NCC2CCN(C(=N)N)CC2)C2CCCCC2)c2cccc3ccccc23)cc1 (single isomer, unassigned; less polar) [Example 241]	25
CC(C)OC(=O)[C@H](CCCNC(=N)N)NC(=O)[C@@H](NC(=O)C(Cc1ccc(C(=N)N)cc1)c1cccc(Br)c1)C1CCCCC1 (single isomer, unassigned; less polar) [Example 242]	2
CN(C)C(=O)[C@H](CCCNC(=N)N)NC(=O)[C@@H](NC(=O)C(Cc1ccc(C(=N)N)cc1)c1cccc(Br)c1)C1CCCCC1 (single isomer, unassigned; less polar) [Example 246]	0.7
CS(=O)(=O)c1cccc(C(Cc2ccc(C(=N)N)cc2)C(=O)N[C@H](C(=O)NCC2CCN(C(=N)N)CC2)C2CCCCC2)c1 (single isomer, unassigned; less polar) [Example 252]	31
CC(=N)N1CCC(CNC(=O)[C@@H](NC(=O)C(Cc2ccc(C(=N)N)cc2)c2cccc(C(F)(F)F)c2)C2CCCCC2)CC1 (single isomer, unassigned; less polar) [Example 258]	8
N=C(N)NCCCC(NC(=O)C(NC(=O)C(Cc1ccc(C(=N)N)cc1)c1cccc(Cl)c1)C1CCCCC1)C(N)=O (single isomer, unassigned; more polar) [Example 125]	2570
Cc1ccc(C(Cc2ccc(C(=N)N)cc2)C(=O)NC(C(=O)NCc2ccc(C(=N)N)cc2)C2CCCCC2)cc1 (single isomer, unassigned; more polar) [Example 153]	5840
Cc1ccccc1C(Cc1ccc(C(=N)N)cc1)C(=O)NC(C(=O)NCC1CCN(C(=N)N)CC1)C1CCCCC1 (single isomer, unassigned; more polar) [Example 162]	25
CC(C)OC(=O)[C@H](CCCNC(=N)N)NC(=O)[C@@H](NC(=O)C(Cc1ccc(C(=N)N)cc1)c1cccc(Br)c1)C1CCCCC1 (single isomer, unassigned; more polar) [Example 243]	25
N=C(N)NCCC[C@H](NC(=O)[C@@H](NC(=O)C(Cc1ccc(C(=N)N)cc1)c1cccnc1)C1CCCCC1)C(N)=O (stereo partly drawn) [Example 10, 2-(S)-{2-(S)-[3-(4-Carbamimidoyl-phenyl)-2-(R,S)-pyridin-3-yl-propionylamino]-2-cyclohexyl-acetylamino}-5-guanidino-pentanoic acid amide trifluoroactic acid salt]	0.9
N=C(N)NCCC[C@H](NC(=O)C(NC(=O)C(Cc1ccc(C(=N)N)cc1)C1CCCCC1)C1CCCCC1)C(=O)NCc1cccs1 (stereo partly drawn) [Example 192, 2-(S)-{2-[3-(4-Carbamimidoyl-phenyl)-2-cyclohexyl-propionylamino]-2-cyclohexyl-acetylamino}-5-guanidino-pentanoic acid (thiophen-2-ylmethyl)-amide trifluoroacetic acid salt]	44
N=C(N)NCCC[C@H](NC(=O)C(NC(=O)C(Cc1ccc(C(=N)N)cc1)C1CCCCC1)C1CCCCC1)C(=O)NCc1ccncc1 (stereo partly drawn) [Example 194, 2-(S)-{2-[3-(4-Carbamimidoyl-phenyl)-2-cyclohexyl-propionylamino]-2-cyclohexyl-acetylamino}-5-guanidino-pentanoic acid (pyridin-4-ylmethyl)-amide trifluoroacetic acid salt]	34
N=C(N)NCCC[C@H](NC(=O)C(NC(=O)C(Cc1ccc(C(=N)N)cc1)C1CCCCC1)C1CCCCC1)C(=O)NC(c1ccccc1)c1ccccc1 (stereo partly drawn) [Example 195, 2-(S)-2-[3-(4-Carbamimidoyl-phenyl)-2-cyclohexyl-propionylamino]-2-cyclohexyl-acetylamino}-5-guanidino-pentanoic acid benzhydryl-amide trifluoroacetic acid salt]	32
N=C(N)NCCC[C@H](NC(=O)C(NC(=O)C(Cc1ccc(C(=N)N)cc1)C1CCCCC1)C1CCCCC1)C(=O)NCc1ccccc1 (stereo partly drawn) [Example 196, 2-(S)-{2-[3-(4-Carbamimidoyl-phenyl)-2-cyclohexyl-propionylamino]-2-cyclohexyl-acetylamino}-5-guanidino-pentanoic acid benzylamide trifluoroacetic acid salt]	39
N=C(N)NCCC[C@H](NC(=O)C(NC(=O)C(Cc1ccc(C(=N)N)cc1)C1CCCCC1)C1CCCCC1)C(=O)NCc1ccc(Cl)cc1 (stereo partly drawn) [Example 201, 2-(S)-{2-[3-(4-Carbamimidoyl-phenyl)-2-cyclohexyl-propionylamino]-2-cyclohexyl-acetylamino}-5-guanidino-pentanoic acid 4-chloro-benzylamide trifluoroacetic acid salt]	42
COc1ccc(CNC(=O)C(CCCNC(=N)N)NC(=O)C(NC(=O)C(Cc2ccc(C(=N)N)cc2)C2CCCCC2)C2CCCCC2)cc1 [Example 202, 2-(S)-{2-[3-(4-Carbamimidoyl-phenyl)-2-cyclohexyl-propionylamino]-2-cyclohexyl-acetylamino}-5-guanidino-pentanoic acid 4-methoxy-benzylamide trilfuoroacetic acid salt]	28
N=C(N)c1ccc(CC(C(=O)N[C@H](C(=O)NCC2CCN(C(=N)N)CC2)C2CCCCC2)c2ccccc2F)cc1 (stereo partly drawn) [Example 214, 3-(4-Carbamimidoyl-phenyl)-N-{(S)-[(1-carbamimidoyl-piperidin-4-ylmethyl)-carbamoyl]-cyclohexyl-methyl}-2-(2-fluoro-phenyl)-propionamide trifluoroacetic acid salt]	47
